Measured values published in ChEMBL document CHEMBL4184340, “Fragment-Based Discovery of a Potent, Orally Bioavailable Inhibitor That Modulates the Phosphorylation and Catalytic Activity of ERK1/2” (J Med Chem, 2018).

Key:
in vivo [1] = settings: Balb/c, mouse, po, 5 mg/kg
in vivo [2] = settings: Balb/c, mouse, po, 5 mg/kg; remark: listed apart in the source
in vivo [3] = settings: Balb/c, mouse, po, 5 mg/kg; remark: listed apart in the source
in vivo [4] = settings: Balb/c, mouse, iv, 0.5 mg/kg
in vivo [5] = settings: Balb/c, mouse, iv, 0.5 mg/kg; remark: listed apart in the source
in vitro = settings: human, Caco-2

| half-life at 24 h (in vivo [1]) | AUC at 24 h (in vivo [2]) | bioavailability at 24 h (in vivo [3]) | clearance at 24 h (in vivo [4]) | Vd at 24 h (in vivo [5]) | Papp at 1 h, 10 µM (in vitro) | SMILES |
| --- | --- | --- | --- | --- | --- | --- |
| 0.8 h | 3.7 µg·h/mL | 59% | 0.78 L/h/kg | 0.6 L/kg | 66 nm/s | Cc1cccc([C@@H](CO)NC(=O)[C@@H](C)N2Cc3ccc(-c4nc(NC5CCOCC5)ncc4Cl)cc3C2=O)c1 |
| 1 h | 0.53 µg·h/mL | 8% | 0.84 L/h/kg | 0.2 L/kg | 170 nm/s | CC(C)(C)NC(=O)CN1Cc2ccc(-c3nc(NC4CCOCC4)ncc3Cl)cc2C1=O |
| 0.7 h | 2.6 µg·h/mL | 70% | 1.38 L/h/kg | 1 L/kg | 130 nm/s | C[C@H](C(=O)N[C@H](CO)c1ccccc1)N1Cc2ccc(-c3nc(NC4CCOCC4)ncc3Cl)cc2C1=O |
| 0.7 h | 5.9 µg·h/mL | 30% | 0.252 L/h/kg | 0.1 L/kg | 220 nm/s | CN(C(=O)CN1Cc2ccc(-c3nc(NC4CCOCC4)ncc3Cl)cc2C1=O)C(C)(C)C |
| 1 h | 0.05 µg·h/mL | 1% | 1.02 L/h/kg | 0.05 L/kg | 190 nm/s | COCCN1Cc2ccc(-c3nc(NC4CCOCC4)ncc3Cl)cc2C1=O |
| 3 h | 3 µg·h/mL | 41% | 0.66 L/h/kg | 0.6 L/kg | 7 nm/s | O=C(CN1Cc2ccc(-c3nc(NC4CCOCC4)ncc3Cl)cc2C1=O)NC(CO)c1ccccc1 (single isomer, unassigned) |
| 2 h | 1.8 µg·h/mL | 32% | 0.9 L/h/kg | 0.2 L/kg | 400 nm/s | O=C1c2cc(-c3nc(NC4CCOCC4)ncc3Cl)ccc2CN1CCN1CCOCC1 |
| 1 h | 6.9 µg·h/mL | 32% | 0.228 L/h/kg | 0.2 L/kg |  | O=C(CN1Cc2ccc(-c3nc(NC4CCOCC4)ncc3Cl)cc2C1=O)NCc1ccccc1 |
